Reference: patent publication US20100113291A1 (CENTRE NATIONAL DE LA RECHERCHE SCIENTIFIQUE, priority 2006, published 2010)

Target: T1, MabA-C60V/S144L (Mycobacterium tuberculosis, UniProt P9WGT3, C60V/S144L)
T1 construct: made in house; host or cells: Escherichia coli
Format: binding
Conditions: read-out: KD for the cofactor

With `NC(=O)C1=CN([C@@H]2O[C@H](COP(=O)(O)OP(=O)(O)OC[C@H]3O[C@@H](n4cnc5c(N)ncnc54)[C@H](OP(=O)(O)O)[C@@H]3O)[C@@H](O)[C@H]2O)C=CC1` [NADPH] the Kd was 11.2 µM.
